Results taken from patent publication US20260021103A1, “IKZF2 AND CK1-ALPHA DEGRADING COMPOUNDS AND USES THEREOF” (President and Fellows of Harvard College, priority 2022, published 2026).

Experiments:
[1] = molecular target: T1, IKZF1 (Homo sapiens, UniProt Q13422+Q96SW2); test: Flow cytometry for measuring degradation, HEK293T GFP-POI reporter cells (IKZF1); type: cell-based; conditions: for IKZF1% degradation at 100 nM / IKZF1% degradation at 1 μM: 24 h, HEK293T GFP reporter; for Dmax: HEK-293T, Table 3
T1 construct: expressed in transfected cells; host or cells: HEK293T (lentiviral transduction, puromycin selection, FACS sorting)

[2] = molecular target: T2, CK1α (Homo sapiens, UniProt P48729+Q96SW2); test: Flow cytometry for measuring degradation, HEK293T GFP-POI reporter cells (CK1α); type: cell-based; conditions: for CK1α % degradation at 100 nM / CK1α % degradation at 1 μM: 24 h, HEK293T GFP reporter; for Dmax: CK1, read-out: Dmax CK1a (%); for Dmax / DC50: Table 3; for DC50: read-out: DC50 CK1a
T2 construct: expressed in transfected cells; host or cells: HEK293T (lentiviral transduction, puromycin selection, FACS sorting)

[3] = molecular target: T3, IKZF2 (Homo sapiens, UniProt Q96SW2+Q9UKS7); test: Flow cytometry for measuring degradation, HEK293T GFP-POI reporter cells (IKZF2); type: cell-based; conditions: for IKZF2% degradation at 100 nM / IKZF2% degradation at 1 μM: 24 h, HEK293T GFP reporter; for Dmax: HEK-293T; for Dmax / DC50: Table 3
T3 construct: expressed in transfected cells; host or cells: HEK293T (lentiviral transduction, puromycin selection, FACS sorting)

[4] = In vitro solubility in DMSO; type: physicochemical; conditions: DMSO, organic solvent or mixture
[5] = molecular target: GSPT1 (Homo sapiens, UniProt P15170+Q96SW2); test: Flow cytometry for measuring degradation, HEK293T GFP-POI reporter cells (GSPT1); type: cell-based; parameters: expressed in transfected cells; host or cells: HEK293T; conditions: for GSPT1% degradation at 100 nM / GSPT1% degradation at 1 μM: 24 h, HEK293T GFP reporter; for Dmax: HEK-293T, Table 3
Chain of GSPT1 (P15170 whole entry): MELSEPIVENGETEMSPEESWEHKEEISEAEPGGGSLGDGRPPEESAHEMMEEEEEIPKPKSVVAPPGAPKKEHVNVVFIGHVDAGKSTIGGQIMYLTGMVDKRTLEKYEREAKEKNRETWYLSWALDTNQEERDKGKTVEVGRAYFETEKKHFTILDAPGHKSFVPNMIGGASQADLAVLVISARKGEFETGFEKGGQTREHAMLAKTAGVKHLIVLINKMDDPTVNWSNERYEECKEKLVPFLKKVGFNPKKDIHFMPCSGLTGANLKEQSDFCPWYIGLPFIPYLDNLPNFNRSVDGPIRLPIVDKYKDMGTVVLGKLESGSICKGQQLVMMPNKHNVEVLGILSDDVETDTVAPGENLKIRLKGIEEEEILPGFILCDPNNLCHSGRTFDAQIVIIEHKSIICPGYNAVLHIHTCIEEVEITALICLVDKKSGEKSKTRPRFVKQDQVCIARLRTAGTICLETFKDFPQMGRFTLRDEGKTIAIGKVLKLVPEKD
Chain of GSPT1 (Q96SW2 whole entry): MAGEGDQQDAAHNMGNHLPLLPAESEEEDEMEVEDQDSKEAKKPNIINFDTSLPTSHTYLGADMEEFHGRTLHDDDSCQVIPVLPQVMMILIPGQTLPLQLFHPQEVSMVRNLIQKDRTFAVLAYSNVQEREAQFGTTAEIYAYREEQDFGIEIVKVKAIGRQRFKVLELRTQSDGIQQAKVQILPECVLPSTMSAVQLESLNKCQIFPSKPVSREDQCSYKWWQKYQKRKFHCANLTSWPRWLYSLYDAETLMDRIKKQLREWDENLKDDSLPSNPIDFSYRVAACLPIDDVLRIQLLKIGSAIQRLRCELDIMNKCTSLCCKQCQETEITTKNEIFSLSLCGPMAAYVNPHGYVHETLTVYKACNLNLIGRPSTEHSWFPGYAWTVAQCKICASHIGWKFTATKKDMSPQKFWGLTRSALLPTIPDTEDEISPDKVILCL
Chain of GSPT1 (Q16531 whole entry partner): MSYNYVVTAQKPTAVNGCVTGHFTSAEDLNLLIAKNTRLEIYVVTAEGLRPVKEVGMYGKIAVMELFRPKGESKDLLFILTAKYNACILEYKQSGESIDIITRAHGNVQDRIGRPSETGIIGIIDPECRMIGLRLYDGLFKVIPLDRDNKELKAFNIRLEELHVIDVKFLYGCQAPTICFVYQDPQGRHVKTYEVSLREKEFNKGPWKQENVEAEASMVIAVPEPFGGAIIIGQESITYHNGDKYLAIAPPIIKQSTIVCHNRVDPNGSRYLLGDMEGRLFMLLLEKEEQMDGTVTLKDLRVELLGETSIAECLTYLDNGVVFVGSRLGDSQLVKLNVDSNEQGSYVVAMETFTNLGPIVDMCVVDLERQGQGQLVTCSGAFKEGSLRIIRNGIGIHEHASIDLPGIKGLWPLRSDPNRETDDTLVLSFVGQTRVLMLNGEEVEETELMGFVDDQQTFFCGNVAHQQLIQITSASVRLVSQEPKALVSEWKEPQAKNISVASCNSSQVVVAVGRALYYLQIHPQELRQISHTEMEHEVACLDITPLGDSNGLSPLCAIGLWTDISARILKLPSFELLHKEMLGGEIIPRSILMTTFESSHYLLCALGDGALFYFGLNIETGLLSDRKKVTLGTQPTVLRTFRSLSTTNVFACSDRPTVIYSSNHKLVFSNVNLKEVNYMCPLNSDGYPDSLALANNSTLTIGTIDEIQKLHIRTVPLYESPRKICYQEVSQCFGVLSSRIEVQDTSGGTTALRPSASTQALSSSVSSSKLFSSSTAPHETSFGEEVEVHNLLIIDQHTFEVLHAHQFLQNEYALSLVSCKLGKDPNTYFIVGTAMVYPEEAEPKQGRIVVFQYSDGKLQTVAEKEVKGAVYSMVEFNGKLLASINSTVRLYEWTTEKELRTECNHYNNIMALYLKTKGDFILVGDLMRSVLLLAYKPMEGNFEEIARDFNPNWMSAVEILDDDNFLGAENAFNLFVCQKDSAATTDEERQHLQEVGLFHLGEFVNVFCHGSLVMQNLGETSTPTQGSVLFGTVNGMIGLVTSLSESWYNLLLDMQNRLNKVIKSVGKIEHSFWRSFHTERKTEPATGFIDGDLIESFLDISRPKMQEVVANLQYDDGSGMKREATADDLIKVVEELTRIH

T1 sequence (Q13422 whole entry): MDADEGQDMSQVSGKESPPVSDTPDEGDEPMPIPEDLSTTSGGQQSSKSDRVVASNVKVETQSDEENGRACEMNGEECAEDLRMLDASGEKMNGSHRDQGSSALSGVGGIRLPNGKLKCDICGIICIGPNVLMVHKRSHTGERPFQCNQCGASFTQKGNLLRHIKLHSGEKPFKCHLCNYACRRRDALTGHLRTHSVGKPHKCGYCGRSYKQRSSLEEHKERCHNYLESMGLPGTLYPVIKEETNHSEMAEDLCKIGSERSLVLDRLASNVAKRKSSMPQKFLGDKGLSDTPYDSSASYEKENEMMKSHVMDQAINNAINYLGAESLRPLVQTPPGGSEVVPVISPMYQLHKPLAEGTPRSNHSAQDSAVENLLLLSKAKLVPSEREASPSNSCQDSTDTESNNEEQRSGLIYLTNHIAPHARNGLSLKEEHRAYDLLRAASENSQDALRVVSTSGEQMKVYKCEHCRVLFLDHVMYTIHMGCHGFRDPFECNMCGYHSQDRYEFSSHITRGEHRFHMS
T1 sequence (Q96SW2 whole entry): as the sequence (Q96SW2 whole entry) above
T1 sequence (Q16531 whole entry partner): as the sequence (Q16531 whole entry partner) above
T3 sequence (Q9UKS7 whole entry): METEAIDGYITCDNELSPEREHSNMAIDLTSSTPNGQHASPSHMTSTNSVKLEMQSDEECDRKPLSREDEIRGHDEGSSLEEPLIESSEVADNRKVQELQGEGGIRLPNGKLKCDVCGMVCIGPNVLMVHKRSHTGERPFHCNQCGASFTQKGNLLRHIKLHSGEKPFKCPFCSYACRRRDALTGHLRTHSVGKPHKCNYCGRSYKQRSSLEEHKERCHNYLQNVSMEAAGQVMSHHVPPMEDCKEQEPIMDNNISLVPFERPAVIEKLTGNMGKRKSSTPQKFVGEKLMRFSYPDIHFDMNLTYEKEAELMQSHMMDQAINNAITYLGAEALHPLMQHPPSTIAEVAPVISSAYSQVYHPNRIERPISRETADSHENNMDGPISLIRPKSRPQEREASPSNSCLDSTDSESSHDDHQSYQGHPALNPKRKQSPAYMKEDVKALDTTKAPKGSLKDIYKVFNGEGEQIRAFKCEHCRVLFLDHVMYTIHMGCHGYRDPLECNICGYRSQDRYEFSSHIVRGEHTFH
T3 sequence (Q96SW2 whole entry): as the sequence (Q96SW2 whole entry) above
T3 sequence (Q16531 whole entry partner): as the sequence (Q16531 whole entry partner) above
T2 sequence (P48729 whole entry): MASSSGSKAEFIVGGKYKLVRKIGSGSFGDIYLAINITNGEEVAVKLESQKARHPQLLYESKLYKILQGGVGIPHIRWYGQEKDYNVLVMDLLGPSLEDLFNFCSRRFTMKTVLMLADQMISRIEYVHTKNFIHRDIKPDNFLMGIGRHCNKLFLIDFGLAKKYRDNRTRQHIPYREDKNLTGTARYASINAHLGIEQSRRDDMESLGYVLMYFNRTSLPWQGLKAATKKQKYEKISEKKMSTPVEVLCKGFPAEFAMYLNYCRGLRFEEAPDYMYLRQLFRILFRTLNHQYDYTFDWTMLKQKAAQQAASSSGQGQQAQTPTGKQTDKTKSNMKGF
T2 sequence (Q96SW2 whole entry): as the sequence (Q96SW2 whole entry) above
T2 sequence (Q16531 whole entry partner): as the sequence (Q16531 whole entry partner) above

SMILES | IKZF1% degradation at 100 nM [1] | IKZF1% degradation at 1 μM [1] | Dmax [1] | CK1α % degradation at 100 nM [2] | CK1α % degradation at 1 μM [2] | Dmax [2] | DC50 [2] | IKZF2% degradation at 100 nM [3] | IKZF2% degradation at 1 μM [3] | Dmax [3] | DC50 [3] | solubility [4] | GSPT1% degradation at 100 nM [5] | GSPT1% degradation at 1 μM [5] | Dmax [5]
CN1C(=O)CCc2cc(C(=O)Nc3ccc4c(c3)CN(C3CCC(=O)NC3=O)C4=O)ccc21 (centres unmarked) [DEG-97, N-(2-(2,6-dioxopiperidin-3-yl)-1-oxoisoindolin-5-yl)-1-methyl-2-oxo-1,2,3,4-tetrahydroquinoline-6-carboxamide] | 2.4% | 4.1% | 13.1% | 60.1% | 74.1% | 78% | 32 nM | 52.6% | 87.1% | 95.9% | 83.1 nM | > 100 mM | 1.6% | −3.4% | 5.6%
COCOc1ccc2cc(C(=O)Nc3ccc4c(c3)CN(C3CCC(=O)NC3=O)C4=O)ccc2c1 (centres unmarked) [DEG-92, N-(2-(2,6-dioxopiperidin-3-yl)-1-oxoisoindolin-5-yl)-6-(methoxymethoxy)-2-naphthamide] | 6.7% | 8.3% | 14.5% | 76.2% | 80.1% | 80.2% | 2.9 nM | 87.6% | 94.5% | 95.9% | 7.9 nM | > 100 mM | 5.3% | 5.0% | 12.8%
CS(=O)(=O)c1ccc2cc(C(=O)Nc3ccc4c(c3)CN(C3CCC(=O)NC3=O)C4=O)ccc2c1 (centres unmarked) [DEG-93, N-(2-(2,6-dioxopiperidin-3-yl)-1-oxoisoindolin-5-yl)-6-(methylsulfonyl)-2-naphthamide] | 4.9% | 7.0% | 10.4% | 60.2% | 74.6% | 78.9% | 21.1 nM | 56.0% | 87.7% | 95.1% | 73.1 nM | – | 7.8% | 10.6% | 14.6%
CN1C(=O)COc2cc(C(=O)Nc3ccc4c(c3)CN(C3CCC(=O)NC3=O)C4=O)ccc21 (centres unmarked) [DEG-94, N-(2-(2,6-dioxopiperidin-3-yl)-1-oxoisoindolin-5-yl)-4-methyl-3-oxo-3,4-dihydro-2H-benzo[b][1,4]oxazine-7-carboxamide] | 8.7% | 20.8% | 30.5% | 51.3% | 71.5% | 76.7% | 42.5 nM | 51.8% | 85.2% | 92.8% | 78.8 nM | – | 9.3% | 13.2% | 13.7%
COc1cc(C(=O)Nc2ccc3c(c2)CN(C2CCC(=O)NC2=O)C3=O)ccc1Oc1ccccc1 (centres unmarked) [DEG-76, N-(2-(2,6-dioxopiperidin-3-yl)-1-oxoisoindolin-5-yl)-3-methoxy-4-phenoxybenzamide] | 8.7 ± 1.8% | 17.2 ± 1.2% | – | 64.1 ± 0.8% | 69.9 ± 0.5% | – | – | 81.8 ± 0.4% | 92.8 ± 0% | – | – | – | 12.1 ± 0.5% | 21.3 ± 1.7% | –
COc1cccc2c1C=C(C(=O)Nc1ccc3c(c1)CN(C1CCC(=O)NC1=O)C3=O)CO2 (centres unmarked) [DEG-79, N-(2-(2,6-dioxopiperidin-3-yl)-1-oxoisoindolin-5-yl)-5-methoxy-2H-chromene-3-carboxamide] | 39.4 ± 0.8% | 70.3 ± 0.2% | – | 59.4 ± 1% | 38.1 ± 3.4% | – | – | 74.6 ± 0.3% | 93 ± 0.1% | – | – | – | 24 ± 1% | 44.3 ± 1.3% | –
O=C1CCC(N2Cc3cc(NC(=O)c4cccc(C(=O)c5ccccc5)c4)ccc3C2=O)C(=O)N1 (centres unmarked) [DEG-51, 3-benzoyl-N-(2-(2,6-dioxopiperidin-3-yl)-1-oxoisoindolin-5-yl)benzamide] | 59.5 ± 0.2% | 84 ± 0.2% | – | 63.7 ± 1.1% | 69.8 ± 0.5% | – | – | 82.6 ± 0.3% | 93.9 ± 0% | – | – | – | 9 ± 1.6% | 13.7 ± 0.3% | –
O=C1CCC(N2Cc3cc(NC(=O)C4=Cc5cc(Br)cc(Br)c5OC4)ccc3C2=O)C(=O)N1 (centres unmarked) [DEG-86, 6,8-dibromo-N-(2-(2,6-dioxopiperidin-3-yl)-1-oxoisoindolin-5-yl)-2H-chromene-3-carboxamide] | 12.3 ± 0.9% | 22.6 ± 0.5% | – | 46.5 ± 2.5% | 54.7 ± 1.2% | – | – | 48.7 ± 1.1% | 62.6 ± 0.5% | – | – | – | 5.3 ± 2% | 9.2 ± 0.7% | –
COc1cc(Br)cc2c1OCC(C(=O)Nc1ccc3c(c1)CN(C1CCC(=O)NC1=O)C3=O)=C2 (centres unmarked) [DEG-84, 6-bromo-N-(2-(2,6-dioxopiperidin-3-yl)-1-oxoisoindolin-5-yl)-8-methoxy-2H-chromene-3-carboxamide] | 12.6 ± 0.5% | 26.1 ± 0.5% | – | 64.7 ± 0.1% | 68 ± 1.8% | – | – | 74.4 ± 0.4% | 87.8 ± 0.2% | – | – | – | 1.6 ± 1.1% | 4.1 ± 2.6% | –
Cc1ccc2c(c1)OCC(C(=O)Nc1ccc3c(c1)CN(C1CCC(=O)NC1=O)C3=O)=C2 (centres unmarked) [DEG-80, N-(2-(2,6-dioxopiperidin-3-yl)-1-oxoisoindolin-5-yl)-7-methyl-2H-chromene-3-carboxamide] | 8.6 ± 0.1% | 24 ± 0.1% | – | 63.5 ± 1.5% | 66.9 ± 1.1% | – | – | 72.6 ± 0.9% | 91.5 ± 0.2% | – | – | – | 14.3 ± 2.1% | 28 ± 0.8% | –
COc1ccc(CCC(=O)Nc2ccc3c(c2)CN(C2CCC(=O)NC2=O)C3=O)cc1 (centres unmarked) [DEG-57] | 81.9 ± 0.7% | 92.5 ± 0.2% | – | 40.3 ± 11.2% | 54.1 ± 2.1% | – | – | 76.2 ± 0.4% | 88.6 ± 0.2% | – | – | – | 11.7 ± 1.3% | 9.9 ± 0.8% | –
COc1ccc2c(c1)OCC(C(=O)Nc1ccc3c(c1)CN(C1CCC(=O)NC1=O)C3=O)=C2 (centres unmarked) [DEG-74, N-(2-(2,6-dioxopiperidin-3-yl)-1-oxoisoindolin-5-yl)-7-methoxy-2H-chromene-3-carboxamide] | 4.3 ± 0.5% | 32.5 ± 0.4% | – | 59.5 ± 1.1% | 64.8 ± 0.6% | – | – | 57.1 ± 1.1% | 96 ± 0% | – | – | – | 9 ± 2.6% | 37.5 ± 2.1% | –
